# Measured values published in patent US20140163082A1, “PYRAZOLYL COMPOUNDS FOR USE IN REVERSING REACTIVE GLIOSIS” (priority 2011, published 2014).
# Columns and labels:
# [1] = tested on: retinal vasculature in OIR mouse model; test: Morphometric assessment of retinal vascular density (CD31 staining), OIR mouse model; format: in vivo, C57BL/6J mice; conditions: OIR mice, P17; DMSO 88, normoxic 154
# Experimental: Retinal NV was induced in newborn mice as described previously. Briefly, P7 mice were exposed with their nursing mother, for 5 days [between P7 and P12] to hyperoxic conditions, by incubating them in an airtight chamber [PROOX 110 chamber O2 controller; Biospherix Ltd., Redfield, N.Y.] ventilated by a mixture of O2 and air to a final oxygen fraction of 75±2%. These incubation conditions induced vaso-obliteration and subsequent cessation of vascular development in the capillary beds of the central retina. At P12, the mice were allowed to recover in normal room air conditions and maintained for another 5 days [till P17], the day in which peak disease occurs. A condition of relative hypoxia resulted between P12 and P17, and extensive retinal NV developed in 100% of the mice. […]
# Retinas were harvested at various time points and fixed with 4% paraformaldehyde (PFA) and methanol followed by blocking in 50% FBS/20% normal goat serum for 1 hour at room temperature. […] Quantitation of PECAM/CD-31 immunostaining was processed morphometrically using Metamorph™ imaging software [Universal Imaging, Sunnyvale, Calif.] to determine the area of positive staining for YC-1-treatedt vs. control group. […] All results were expressed as meant S.E.M. Differences were considered statistically significant at **P<0.01.
# [2] = tested on: hRMVECs cocultured with rMC-1 cells; test: Cell proliferation in a co-culture system model (MTT); format: cell-based, human; conditions: rMC-1 cells treated with YC-1 100 μM for 24 hours, normoxic and hypoxic conditions
# Experimental: To test the influence of Móller cells [rMC-1] on the hRMVECs proliferation, rMC-1 [2×10^5 cells cm—2] were plated in a transwell insert [Millipore, Billerica, Mass.] with […] pores and allowed to adhere overnight in 150 μL of CS—C complete medium [Cell Systems, Kirkland, Wash.], supplemented with 10% FBS and incubated at 37° C. under normoxic [5% CO2/95% air]. The rMC-1 cells were then incubated under normoxic [5% CO2/95% air], or hypoxic conditions. To establish hypoxic conditions, cells were placed in airtight chambers [BioSpherix, Redfield, N.Y.] that were flushed with a gas mixture of 5% CO2 and 95% N2. Oxygen concentrations within these chambers were maintained at 1.2% using Pro-Ox Model 110 O2 regulators. After treating the r-MC-1 cells with YC-1 [100 μM] for 24 hours, the insert was then placed into 24 well-plates, in which hRMVECs were plated at 5×10^3 cells cm^−2 and allowed to adhere overnight [FIG. 7B]. hRMVECs proliferation was evaluated using 3, […]-2,5-diphenyl tetrazolium bromide [MTT] colorimetric assay [Mosmann,1983], at 24, 48, 72, and 96 hours after coculture. During the last 4 hours of each day, […] of 5 mg/ml MTT [Millipore, Billerica, Mass.] was added in each well. Formed Formazan crystals were dissolved in […] DMSO and optical density was recorded at 492 nm. Experiments were performed on at least three independent occasions. […]
# R28 cells = test: Real time RT-PCR analysis, in vitro, R28; format: cell-based, rat
# Experimental: A transformed Müller cell line [rMC-1] were grown in cell cultures in DMEM supplemented with 15% FBS, as well as with a fungicide mixture and 0.5% gentamicin in a humidified atmosphere of 5% CO2/95% air. Medium was changed every 2-3 days, and cells were grown to confluence in a 150-mm dish. Cells were split into 60-mm dishes and were used in the experiments when confluent. […] cells are immortalized rat retinal neurosensory/neuoroglial progenitor cells, by transfection with Adenovirus 12S E1A into the neonatal retinal tissue. […] cells express genes characteristic of neurons, as well as functional neuronal properties. […] cells were cultured in DMEM/F12 medium in a 1:1 mixture, supplemented with 5% FBS, 1.5 mM L-glutamine, 7.5 mM sodium pyruvate, 0.1 mM nonessential amino acids, 1×MEM, 0.37% sodium bicarbonate and 10 μg/ml gentamicin. Cells were incubated at 37° C. in the presence of 5% CO2. Human retinal microvascular endothelial cells [[…]][40,000 cells/well] were seeded in a 96-well plate and allowed to adhere overnight and incubated at 37° C. in normoxia. Cells were then cultured in 150 μl of CS-C medium supplemented with 10% FBS and in the presence of 1-100 μM YC-1 or DMSO [0.2%]. Cells were placed in airtight chambers [BioSpherix, Redfield, N.Y.] and the O2 tension was maintained at 1.2% by using Pro-Ox Model 110 O2 regulator [BioSpherix, Redfield, N.Y.]. The chamber was purged with a gas mixture of 5.32% CO2, and 93.48% N2. […] We used the primers summarized in [FIG. 6C] for RT-PCR. Gene-specific molecular beacons and primers were designed to encompass the genes of interest, with beacon's annealing site to overlap with the exon-exon junctions for additional specificity [Beacon Designer 6.0, Premier Biosoft International, Palo Alto, Calif., USA]. Threshold cycle [Ct] values for the different samples were utilized for the calculation of gene expression fold change using the formula 2 to the minus power of delta delta ct. Fold changes in the HIF-1, VEGF, PDGF-B, GFAP and iNOS gene relative to the β-actin endogenous control gene were determined by the following equation: fold change=2-Δ[ΔC T], where change in threshold cycle [ΔCT]=CT [gene of interest]-CT [β-actin] and Δ [ΔCT]=ΔCT [treated]-ΔCT [untreated].
# [3] = R28, hypoxia 48 hours, YC-1 25-100 μM, vs DMSO-treated hypoxic cells
smiles,measurement,setting,value
"OCc1ccc(-c2nn(Cc3ccccc3)c3ccccc23)o1 [YC-1, 3-(5′-hydroxymethyl-2′-furyl)-1-benzylindazole]","mean vascular density (endothelial cells per reticle square, CD31)",[1],148±2
same,proliferation of hRMVECs in coculture,[2],significantly suppressed
same,PDGF-B mRNA level,R28 cells; [3],significant dose-dependent attenuations
same,VEGF mRNA level,R28 cells; [3],significant dose-dependent attenuations
same,iNOS mRNA level,R28 cells; [3],significant dose-dependent attenuations
same,GFAP mRNA level,"R28 cells; R28, hypoxia, YC-1 25-100 μM, vs DMSO-treated hypoxic cells, normalized to β-actin",significant dose-dependent attenuations
same,HIF-1α message level,"R28 cells; R28, pre- vs post-YC-1 treatment",no differences
same,cell viability (DAPI exclusion),rMC-1 cells,comprised the majority of cells
